Drawing on PubChem BioAssay (NCI), this text covers GI50 and TGI for 16 molecules.

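Each compound was tested at five concentrations against cells in 96-well plates for 48 hours. GI50 marks 50% less growth. Definition used: TGI = concentration required for complete inhibition of growth.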

Some test systems named below: HOP-92 NSCLC; HL-60(TB) leukemia; ACHN renal; MOLT-4 leukemia; NCI-H226 lung; SF-539 CNS; U251 CNS; NCI-H522 lung; HCC-2998 colon.
What all share (experiment): inhibition of tumour cell growth, NCI panel, 48 h

For `COc1cc(/C=N/O)nc(-c2ccccn2)c1`, the GI50 was 551 nM in the assay on HOP-92 NSCLC; 271 nM in the assay on HL-60(TB) leukemia; 241 nM in the assay with ACHN renal; 281 nM with MOLT-4 leukemia; 0.325 µM in the assay with NCI-H226 lung; 386 nM in the assay on SF-539 CNS. Besides, the GI50 is 0.374 µM in the assay on U251 CNS, 0.565 µM in the assay with NCI-H522 lung and 341 nM in the assay on HCC-2998 colon. Also, the TGI is more than 100 µM in the assay with HOP-92 NSCLC; 2.81 µM in the assay on HL-60(TB) leukemia; 12.6 µM with ACHN renal; 25.1 µM in the assay with MOLT-4 leukemia; 5.93 µM in the assay with NCI-H226 lung; 10.4 µM in the assay with SF-539 CNS. Also, the TGI with U251 CNS, with NCI-H522 lung and in the assay with HCC-2998 colon was more than 100 µM throughout.

In the case of `Cc1cccc2cc3ccc4ccccc4c3cc12`, the TGI was more than 100 µM with HOP-92 NSCLC; 52 µM in the assay with HL-60(TB) leukemia; more than 100 µM in the assay on ACHN renal; 70.9 µM in the assay on MOLT-4 leukemia; more than 100 µM in the assay with NCI-H226 lung; more than 100 µM in the assay with SF-539 CNS. Also, the TGI in the assay with U251 CNS is more than 100 µM; in the assay on NCI-H522 lung, 95.5 µM; in the assay on HCC-2998 colon, 46.7 µM.

As to `COc1ccc(Cn2cc3c(c2-c2ccccc2)CCc2cncnc2-3)cc1`, the GI50 with HOP-92 NSCLC was 10800 nM; in the assay with HL-60(TB) leukemia, 2040 nM; with ACHN renal, 11300 nM; with MOLT-4 leukemia, 2810 nM; in the assay on NCI-H226 lung, 11.5 µM; in the assay on SF-539 CNS, 6000 nM. Moreover, the GI50 in the assay with U251 CNS is 5.47 µM; with NCI-H522 lung, 5.05 µM; in the assay on HCC-2998 colon, 11900 nM. In addition, the TGI came to 28.5 µM with HOP-92 NSCLC; 5.7 µM in the assay with HL-60(TB) leukemia; 35.8 µM in the assay on ACHN renal; 11.1 µM in the assay with MOLT-4 leukemia; 26.7 µM in the assay on NCI-H226 lung; 18.7 µM in the assay with SF-539 CNS. Besides, the TGI in the assay with U251 CNS is 18 µM; in the assay on NCI-H522 lung, 21 µM; with HCC-2998 colon, 25.5 µM.

Take `CC(=O)C1C(=O)C(=O)N(c2ccc([N+](=O)[O-])cc2Cl)C1=O` (centres undefined): the TGI in the assay with HOP-92 NSCLC, with HL-60(TB) leukemia, with ACHN renal, in the assay with MOLT-4 leukemia, in the assay on NCI-H226 lung and in the assay on SF-539 CNS was more than 100 µM in each case. Moreover, the TGI in the assay on U251 CNS, with NCI-H522 lung and in the assay on HCC-2998 colon was more than 100 µM each time.

For `CCN1CCC(O)(c2ccc(Cl)c(Cl)c2)C(C(=O)c2ccc(Cl)c(Cl)c2)C1` (centres undefined), the TGI in the assay with HOP-92 NSCLC turned out to be 29 µM; in the assay with HL-60(TB) leukemia, 33.4 µM; in the assay with ACHN renal, 28.3 µM; in the assay with MOLT-4 leukemia, 32.4 µM; with NCI-H226 lung, 40.1 µM; in the assay on SF-539 CNS, 32.1 µM. Further, the figures for the TGI in the assay on U251 CNS, in the assay on NCI-H522 lung and in the assay with HCC-2998 colon were 35.9 µM, 13 µM and 35.1 µM, respectively.

Consider `c1cc(-c2cnn3nc(N4CCOCC4)ccc23)nc(NC2CC2)n1`, for which the GI50 in the assay on HOP-92 NSCLC is 5640 nM; in the assay on HL-60(TB) leukemia, 7500 nM; with ACHN renal, 5700 nM; in the assay on MOLT-4 leukemia, 13700 nM; in the assay with NCI-H226 lung, 5.59 µM; in the assay with SF-539 CNS, 6110 nM. Besides, the GI50 is 6.97 µM in the assay with U251 CNS, 13.5 µM in the assay on NCI-H522 lung and 8640 nM in the assay with HCC-2998 colon. In addition, the TGI in the assay on HOP-92 NSCLC is more than 25 µM; in the assay with HL-60(TB) leukemia, 18.9 µM; with ACHN renal it was more than 25 µM; in the assay with MOLT-4 leukemia it was more than 25 µM; with NCI-H226 lung, more than 25 µM; in the assay on SF-539 CNS it was 20.4 µM. Also, the TGI in the assay with U251 CNS, in the assay on NCI-H522 lung and in the assay with HCC-2998 colon was more than 25 µM in each case.

Regarding `C#CCOc1cccc(Nc2ncnc3c2ncn3C2CCN(C(=O)CCl)C2)c1` (centres undefined), the GI50 is 19100 nM in the assay with HOP-92 NSCLC; 19400 nM with HL-60(TB) leukemia; 17700 nM in the assay with ACHN renal; 29.5 µM in the assay with NCI-H226 lung; 17700 nM in the assay with SF-539 CNS; 18.1 µM in the assay with U251 CNS. Further, the GI50 in the assay on NCI-H522 lung was 5.02 µM; in the assay on HCC-2998 colon it was 18200 nM. Besides, the TGI was 39.6 µM with HOP-92 NSCLC; 41.8 µM in the assay with HL-60(TB) leukemia; 31.8 µM with ACHN renal; more than 100 µM in the assay on NCI-H226 lung; 32.4 µM in the assay on SF-539 CNS; 35.1 µM in the assay with U251 CNS. Besides, the TGI in the assay with NCI-H522 lung came out at 19.7 µM; with HCC-2998 colon it was 37.3 µM.

In the case of `COc1cc2c(cc1-c1c(C)noc1C)ncc1[nH]c(=O)n([C@H](C)c3ccccn3)c12`, the GI50 in the assay with HOP-92 NSCLC is 67.7 nM; with HL-60(TB) leukemia, 144 nM; with ACHN renal, 1200 nM; in the assay with MOLT-4 leukemia, 4080 nM; in the assay with NCI-H226 lung it was 12.1 µM; in the assay on SF-539 CNS it was 677 nM. For the same molecule, the GI50 in the assay on U251 CNS was 8.82 µM; with NCI-H522 lung it was 0.0975 µM; in the assay with HCC-2998 colon, 2500 nM. For the same molecule, the TGI is 37.3 µM in the assay on HOP-92 NSCLC; more than 100 µM in the assay on HL-60(TB) leukemia; more than 100 µM in the assay on ACHN renal; 99.3 µM in the assay with MOLT-4 leukemia; more than 100 µM with NCI-H226 lung; more than 100 µM in the assay on SF-539 CNS. Further, the TGI is more than 100 µM in the assay on U251 CNS, 7.07 µM in the assay with NCI-H522 lung and 17.8 µM in the assay on HCC-2998 colon.

As to `Cn1c2cc(Cl)ccc2c2ccc3c(c21)C(=O)C=CC3=O`, the TGI in the assay with HOP-92 NSCLC is 35.8 µM; with HL-60(TB) leukemia, 45.9 µM; in the assay on ACHN renal it was 40.9 µM; with MOLT-4 leukemia, 10.3 µM; in the assay with NCI-H226 lung, more than 100 µM; in the assay with SF-539 CNS it was more than 78.8 µM. The TGI in the assay on U251 CNS was more than 100 µM; with NCI-H522 lung, 22.9 µM; in the assay with HCC-2998 colon it was more than 100 µM.

As to `C/C=C/COc1cc(NC(=S)c2ccoc2C)ccc1OC`, the TGI with HOP-92 NSCLC, in the assay on HL-60(TB) leukemia, with MOLT-4 leukemia, with NCI-H226 lung, in the assay on SF-539 CNS and in the assay with U251 CNS was more than 100 µM each time. The TGI in the assay on NCI-H522 lung and in the assay with HCC-2998 colon was more than 100 µM each time.

`Cc1[nH]ccc2cc3nc4ccccc4c3cc12`: the GI50 is 1300 nM in the assay on HOP-92 NSCLC; 3480 nM with HL-60(TB) leukemia; 963 nM with ACHN renal; 723 nM in the assay on MOLT-4 leukemia; 2.94 µM in the assay on NCI-H226 lung; 3070 nM in the assay with SF-539 CNS. In addition, the GI50 was 2.82 µM in the assay with U251 CNS, 2.22 µM in the assay on NCI-H522 lung and 2850 nM with HCC-2998 colon. Further, the TGI in the assay on HOP-92 NSCLC stood at 5.64 µM; with HL-60(TB) leukemia it was 14.9 µM; in the assay on ACHN renal, 10.6 µM; in the assay with MOLT-4 leukemia it was 3.13 µM; with NCI-H226 lung, 12.6 µM; in the assay on SF-539 CNS, 12.6 µM. The TGI with U251 CNS worked out at 12.4 µM; in the assay with NCI-H522 lung, 9.72 µM; in the assay on HCC-2998 colon it was 13.3 µM.

In the case of `COc1cc(C(=O)/C=C/c2c(-c3cccs3)nc3ccccn23)cc(OC)c1OC`, the GI50 was 289 nM in the assay on HOP-92 NSCLC; 2010 nM with HL-60(TB) leukemia; 2090 nM in the assay with ACHN renal; 1770 nM with MOLT-4 leukemia; 2.04 µM in the assay on NCI-H226 lung; 1870 nM in the assay on SF-539 CNS. The values for the GI50 in the assay on U251 CNS, in the assay on NCI-H522 lung and with HCC-2998 colon were 1.66 µM, 1.1 µM and 1960 nM, respectively. Besides, the TGI is 2.78 µM in the assay with HOP-92 NSCLC; 5.01 µM in the assay on HL-60(TB) leukemia; 5.09 µM in the assay on ACHN renal; 4.39 µM in the assay on MOLT-4 leukemia; 4.3 µM in the assay with NCI-H226 lung; 4.5 µM in the assay with SF-539 CNS. Further, the TGI is 6.03 µM in the assay with U251 CNS, 2.38 µM with NCI-H522 lung and 3.37 µM in the assay with HCC-2998 colon.

Consider `CCN1CCN(c2cc(C)nc(NCc3cc(Nc4ccnc5cc(Cl)ccc45)ccc3F)n2)CC1`, for which the GI50 was 2580 nM with HOP-92 NSCLC; 2180 nM in the assay on HL-60(TB) leukemia; 2890 nM in the assay with ACHN renal; 2340 nM in the assay with MOLT-4 leukemia; 15.4 µM with NCI-H226 lung; 1720 nM in the assay with SF-539 CNS. Besides, the GI50 in the assay with U251 CNS is 3.28 µM; in the assay on NCI-H522 lung, 7.21 µM; in the assay on HCC-2998 colon it was 2590 nM. The TGI was 19.4 µM in the assay with HOP-92 NSCLC; 22.1 µM in the assay with HL-60(TB) leukemia; 11.3 µM with ACHN renal; more than 100 µM in the assay on MOLT-4 leukemia; 48.9 µM in the assay on NCI-H226 lung; 3.42 µM in the assay with SF-539 CNS. Moreover, the TGI in the assay with U251 CNS is 12.6 µM; in the assay on NCI-H522 lung, 36 µM; in the assay on HCC-2998 colon, 31.3 µM.

As for `C/C(CC(=O)Nc1ccc(NC(=O)/C(C)=N/NS(=O)(=O)c2ccc(C)cc2)cc1)=N\NS(=O)(=O)c1ccc(C)cc1`, the TGI in the assay on HOP-92 NSCLC, in the assay on HL-60(TB) leukemia, in the assay on ACHN renal, with MOLT-4 leukemia, in the assay with NCI-H226 lung and in the assay with SF-539 CNS was more than 100 µM each time. Moreover, the TGI in the assay on U251 CNS and in the assay on HCC-2998 colon was more than 100 µM throughout.

Turning to `CN(/C(=N\O)c1ccccc1)c1ccccc1`, the TGI in the assay on HOP-92 NSCLC came to 62.5 µM; with HL-60(TB) leukemia, 48.7 µM; in the assay on NCI-H226 lung, 60 µM; in the assay with SF-539 CNS it was 49.6 µM; with U251 CNS it was 37.6 µM; in the assay with NCI-H522 lung, 40.3 µM. Further, the TGI with HCC-2998 colon amounted to 73.5 µM.

Consider `Oc1oc(-c2ccccc2)nc1/C=C1/C=NN=N1`, for which the TGI in the assay on HOP-92 NSCLC, in the assay on HL-60(TB) leukemia, in the assay on ACHN renal, in the assay with MOLT-4 leukemia, in the assay with NCI-H226 lung and in the assay on SF-539 CNS was more than 100 µM in each case. The TGI with U251 CNS and in the assay with HCC-2998 colon was more than 100 µM in each case.
